Laboratory results from patent publication US20120295805A1, “SOLID PHASE METHODS FOR THE[…] KINETIC QUANTIFICATION OF INTERACTIONS BETWEEN NUCLEIC ACIDS AND SMALL MOLECULES” (priority 2011, published 2012).

Legend:
[1] = system: 10mer DNA sequence AGAATTGAGT possessing a high-affinity site (-AATT-); assay: Electrochemically-determined surface melt curves (solid phase DNA denaturation, cyclic voltammetry of ferrocene-labeled strand); type: binding; settings: 2×10^−6 M netropsin
Excerpt: (B) Shape comparison of solution and surface melting transitions.
In this example, one strand was immobilized while the electroactively-labeled complementary strand was present in solution. Immobilization was realized through a single thiolate (—S—Au) linkage between DNA and the gold electrode support, with mercaptohexanol passivation used to block the remaining surface. (86) Hybridization occurred to the extent governed by thermodynamics under the imposed conditions of temperature and drug concentration. The extent of hybridization was tracked as a function of temperature with cyclic voltammetry, which allows determination of the coverage of double-stranded molecules from the total charge derived from their ferrocene labels. (87-88)
A number of noteworthy conclusions follow from FIG. 5A. The cooling and heating cycles superpose, confirming closeness to equilibrium at the tested scan rate of 0.4° C./min.
This is expected since netropsin prefers to bind to double-stranded DNA. (89) The free energy of binding (i.e. affinity) determined from the surface approach (FIG. 5A) is in reasonable agreement with solution methods. […]

DNA = settings: reported for 0.016 M Na+ in ref. 38, corrected to 0.8 M Na+ using ref. 76; cited from earlier work
[2] = system: MB 5′ Fluorescein-CAATTCCTCT12GAATTG-BHQ1-C7-Amine 3′ with high affinity AATT site in the stem; assay: TIRF-imaged melt curves of surface-immobilized molecular beacons (MB microarray); type: binding; settings: 2 μM netropsin, 0.1 M pH 7 phosphate buffer, average of 9 spots
Method: The field of view is 4 mm diameter. (B) Melting curves of surface-immobilized MBs without and with 2 μM netropsin in 0.1 M phosphate buffer. […] (C) Melting curves under same conditions as in (B), but for MBs in solution. MBs were assumed closed once data with and without netropsin converged at lower temperatures.
BHQ1 is Black Hole Quencher 1, and the 3′ amine is used for surface immobilization via the stem. Repetition with the same MBs printed on commercial aldehyde microarray slides produced a 4-fold gain with transition observed at a similar temperature, FIG. 2A. […] (56-65) In such studies, opening of the MBs is driven by hybridization at the loop section, as opposed to thermal denaturation as in the data of FIG. 2. Efforts to improve the hybridization-induced gains included optimization of pH and salt composition (60-61, 63), insertion of spacers to distance MBs from the solid support, (63) changes in the chemical nature of the solid support (60-61), and isolation of MBs on the surface down to the single-molecule limit. (62) These approaches, however, have not solved the decreased gain, although effective workarounds have been found for hybridization applications (e.g. use of the solid support itself to provide better quenching (66-70)). Surface-immobilized SPs have also produced approximately 4-fold gains upon hybridization. (64) […]

Cn1cc(NC(=O)c2cc(NC(=O)CN=C(N)N)cn2C)cc1C(=O)NCCC(=N)N [netropsin]
Effect on denaturation transition (electrochemical melt curve) ([1]; 0.5 M pH 7 sodium phosphate buffer, scan rate 0.4° C./min): shifts denaturation to higher temperatures | ΔΔG°25C (increment of ΔG° of melting attributed to the drug; free energy of binding) ([1]; surface approach, 0.5 M pH 7 sodium phosphate buffer (0.8 M Na+), calculated at 25° C. from fitted ΔH° and ΔS°): -8.9 kcal/mol | ΔΔG°25C based on solution methods (DNA): -9.2 kcal/mol | Effect on melt transition (TM) of surface-immobilized MBs [2]: TM shifting to higher temperatures
